Test in all cases: inhibition of tumour cell growth, NCI panel, 48 h
In assay [1] the test system is ACHN.
The subject of assay [2] is COLO 205.
Assay [3] deals with DU-145.
The subject of assay [4] is HCC 2998.
The test system of assay [5] is HCT-15.
Assay [6] has as its system HL-60.
Assay [7] relates to K562.
The test system of assay [8] is KM12.
Assay [9] relates to MCF7.
The subject of assay [10] is MDA-MB-435.
The test system of assay [11] is MOLT-4.
Assay [12] deals with NCI-H460.
In assay [13] the test system is PC-3.
In assay [14] the test system is SK-MEL-28.
For assay [15], the system named is SNB-75.
The test system of assay [16] is T47D.
The subject of assay [17] is U-251.
The test system of assay [18] is UACC-257.
The subject of assay [19] is Malme-3M.

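How tested: cells in 96-well plates exposed to compound for 48 hours at five concentrations. Abbreviation: GI50, concentration required for 50% inhibition of growth.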 Calls of active or inactive are those of the source. No stated cut-off is given here; in the data, active = GI50 up to about 1.1 µM and inactive = higher. Where a SMILES comes first, the peptide text is derived from it. [ ]: non-standard residue; d: D form. The star is where a group is joined. Cbz = O=C(OCc1ccccc1)*; Aib = CC(C)(N)C(=O)O

In the case of `CCCCCCCCC[C@@H]1C[C@@H]2CCC3C(C(=O)OCCCCNC(=O)OCc4ccccc4)=C(C)N=C(N1)N32` (stereo partly specified), the GI50 in [1] was 3.15 µM (inactive); in assay [2], 1.62 µM (inactive); in assay [3], 4.76 µM (inactive); in assay [4] it was 3.06 µM (inactive); in [5], 2.81 µM; in [6] it was 1.98 µM (inactive). In addition, the GI50 in assay [7] is 1.77 µM (inactive); in [8] it was 3.13 µM (inactive); in [9] it was 1.94 µM (inactive); in [10] it was 2.78 µM (inactive); in assay [11] it was 2.59 µM (inactive); in assay [12], 3.22 µM (inactive). Besides, the GI50 in [13] is 2.47 µM (inactive); in [14] it was 3.61 µM (inactive); in assay [15], 4.59 µM (inactive); in assay [16], 2.57 µM (inactive); in assay [17], 2.9 µM (inactive); in [18], 3.27 µM (inactive).
With `CCOC(=O)c1sc2nc(SC)nc3c2c1NCN3c1ccc2c(c1)OCCCO2`, the GI50 in assay [1] was 32.1 µM (inactive); in assay [3] it was > 100 µM (inactive); in assay [4], 26.3 µM (inactive); in assay [5], over 100 µM; in [6] it was > 100 µM (inactive); in [7] it was > 100 µM (inactive). In addition, the GI50 is 4.18 µM (inactive) in assay [8]; > 100 µM (inactive) in assay [9]; > 100 µM (inactive) in [10]; > 100 µM (inactive) in assay [11]; > 100 µM (inactive) in assay [19]; 25.7 µM (inactive) in assay [12]. The GI50 in assay [13] was > 100 µM (inactive); in assay [14] it was 56.1 µM (inactive); in [16], 68.1 µM (inactive); in [17] it was 7.57 µM (inactive); in assay [18] it was > 100 µM (inactive).
For `CCCCCC(/C=C/C1CCC(=O)C1CC#C[Si](C)(C)C)OCc1ccccc1` (stereo unspecified), the GI50 in assay [1] was 17.5 µM (inactive); in assay [2] it was 19.2 µM (inactive); in assay [3], 31.8 µM (inactive); in [4] it was 17.9 µM (inactive); in assay [5], 15.6 µM; in assay [7] it was 19.1 µM (inactive). Also, the GI50 in assay [8] was 16.2 µM (inactive); in [9] it was 19.1 µM (inactive); in [10] it was 19.9 µM (inactive); in [11] it was > 37.8 µM (inactive); in assay [19] it was 15.9 µM (inactive); in assay [12], 17 µM (inactive). Besides, the GI50 in assay [13] was 17.3 µM (inactive); in [14], 23 µM (inactive); in assay [15], 16.6 µM (inactive); in assay [16], 23.2 µM (inactive); in assay [17], 19 µM (inactive); in assay [18] it was 17.2 µM (inactive).
As for `NS(=O)(=O)c1ccc(NC(=S)N/C=C2\C(=O)Oc3ccccc3C2=O)cc1`, the GI50 in assay [1] is 18.3 µM (inactive); in assay [2] it was 40.5 µM (inactive); in assay [3] it was 27.4 µM (inactive); in [4], 34.8 µM (inactive); in assay [5], 39.2 µM; in [6], 21.4 µM (inactive). Further, the GI50 is 35.1 µM (inactive) in assay [7]; 16.5 µM (inactive) in assay [8]; 99.5 µM (inactive) in [9]; 43.5 µM (inactive) in assay [10]; 53 µM (inactive) in [11]; 39.1 µM (inactive) in assay [12]. Moreover, the GI50 in [13] was 36.1 µM (inactive); in assay [15], 4.2 µM (inactive); in assay [16], 41.9 µM (inactive); in assay [17], 36.2 µM (inactive); in assay [18], 67.8 µM (inactive).
For the compound `Cc1cc(-c2ccccc2)nc2oc(=O)n(C)c12`, the GI50 is > 100 µM (inactive) in assay [1]; > 100 µM (inactive) in assay [2]; > 100 µM (inactive) in [3]; > 100 µM (inactive) in assay [4]; over 100 µM in assay [5]; > 100 µM (inactive) in [6]. Besides, the GI50 in assay [7], in assay [8], in assay [9], in [10], in [11] and in [19] was > 100 µM (inactive) each time. Also, the GI50 was > 100 µM (inactive) in assay [12]; > 100 µM (inactive) in [13]; > 100 µM (inactive) in assay [14]; 94.6 µM (inactive) in [16]; 51.1 µM (inactive) in assay [17]; > 100 µM (inactive) in assay [18].
`O=C(Nc1cccc(F)c1)c1cc2ccc(O)cc2o/c1=N\c1ccccc1F`: the GI50 in [1] is 3.34 µM (inactive); in assay [2], 21.1 µM (inactive); in assay [3], 4.28 µM (inactive); in assay [4], 9.59 µM (inactive); in assay [5], 2.88 µM; in assay [6], 2.45 µM (inactive). The GI50 in assay [7] was 2.01 µM (inactive); in assay [8], 3.75 µM (inactive); in assay [9] it was 3.33 µM (inactive); in assay [10] it was 3.89 µM (inactive); in [11] it was 2.29 µM (inactive); in assay [19], 4.3 µM (inactive). In addition, the GI50 is 3.15 µM (inactive) in [12]; 8.85 µM (inactive) in assay [13]; 4.05 µM (inactive) in assay [14]; 3.38 µM (inactive) in assay [16]; 3.21 µM (inactive) in assay [17]; 4.33 µM (inactive) in [18].
On to `CN(C)/C=N/Cc1ccc2c(c1)OCO2`, for which the GI50 in assay [1] is > 100 µM (inactive); in [2], > 100 µM (inactive); in assay [3], > 100 µM (inactive); in [4] it was > 100 µM (inactive); in assay [5], over 100 µM; in assay [7] it was > 100 µM (inactive). Besides, the GI50 in [8], in assay [9], in assay [10], in assay [11], in [19] and in [12] was > 100 µM (inactive) in each case. The GI50 in [13], in assay [14], in [15], in [16], in assay [17] and in assay [18] was > 100 µM (inactive) throughout.
Consider `CC(C)(NC(=O)C(C)(C)NC(=O)OCc1ccccc1)C(=O)O` (Cbz-[Aib]-[Aib]-OH), for which the GI50 in [1] is > 100 µM (inactive); in assay [2] it was > 10 µM (inactive); in assay [3], > 100 µM (inactive); in assay [4] it was > 100 µM (inactive); in assay [5] it was over 100 µM; in [7] it was > 100 µM (inactive). The GI50 in [8], in [9], in [10], in assay [11], in assay [19] and in assay [12] was > 100 µM (inactive) each time. For the same compound, the GI50 in assay [13], in [14], in assay [15], in [16], in assay [17] and in assay [18] was > 100 µM (inactive) throughout.
Take `COc1ccc2c(c1)CCc1cc(C(N)=O)c3nnnn3c1-2`: the GI50 in assay [1] was 30.5 µM (inactive); in assay [2], > 100 µM (inactive); in assay [3], 23.7 µM (inactive); in assay [4] it was 39.8 µM (inactive); in assay [5], over 100 µM; in assay [6], > 100 µM (inactive). Moreover, the GI50 in assay [7] is > 96.6 µM (inactive); in assay [8] it was > 100 µM (inactive); in assay [9], > 100 µM (inactive); in assay [10], > 100 µM (inactive); in assay [11] it was > 38.8 µM (inactive); in assay [19], 18.2 µM (inactive). The GI50 in [12] is 12.2 µM (inactive); in assay [13], > 57.9 µM (inactive); in [14] it was > 100 µM (inactive); in [16], 25.2 µM (inactive); in assay [17] it was 23.6 µM (inactive); in assay [18], 85.5 µM (inactive).
Consider `CNC(=O)N(CCC#N)[C@H]1CCCC[C@@H]1N(C(=O)NC)c1ccccc1`, for which the GI50 in assay [1] is > 100 µM (inactive); in [2], > 100 µM (inactive); in [3] it was > 100 µM (inactive); in assay [4], > 100 µM (inactive); in assay [5], over 100 µM; in [7] it was > 100 µM (inactive). Further, the GI50 in [8], in assay [9], in [10], in assay [11], in [19] and in [12] was > 100 µM (inactive) in each case. Also, the GI50 in assay [13], in assay [14], in assay [15], in [16], in [17] and in assay [18] was > 100 µM (inactive) in each case.
For the compound `COc1c2c(c(CC=C(C)C)c3oc(=O)c(-c4ccc(O)cc4)c(O)c13)OC(C)(C)C=C2` [LONCHOCARPIC ACID], the GI50 in [1] was 22.1 µM (inactive); in assay [2], 23.4 µM (inactive); in assay [3], 38.1 µM (inactive); in [4], 20.8 µM (inactive); in assay [5], 11.9 µM; in assay [6], 21.2 µM (inactive). The GI50 in assay [7] is 29.5 µM (inactive); in [8], 14.4 µM (inactive); in assay [9], 16.8 µM (inactive); in assay [10], 15.2 µM (inactive); in [11], 24.9 µM (inactive); in assay [19] it was 30.8 µM (inactive). For the same compound, the GI50 in assay [12] was 24 µM (inactive); in assay [13] it was 31.5 µM (inactive); in [14], 25.9 µM (inactive); in assay [16] it was 14.3 µM (inactive); in assay [17] it was 8.26 µM (inactive); in assay [18], 27.7 µM (inactive).

(Values after ChEMBL document CHEMBL1201862, “PubChem BioAssay data set” (2004).)
